Values of other authors as cited in patent US20180291400A1, “METHODS AND COMPOSITIONS TO INCREASE HUMAN SOMATIC CELL NUCLEAR TRANSFER (SCNT) EFFICIENCY BY REMOVING HISTONE H3-LYSINE TRIMETHYLATION, AND DERIVATION OF HUMAN NT-ESC” (CHILDREN'S MEDICAL CENTER CORPORATION, priority 2015, published 2018).
pIC50: −log10 of the molar value.

Tests used:
SUV39h2 = SUV39h2 (Homo sapiens, UniProt Q9H5I1)
Chain of SUV39h2 (Q9H5I1 whole entry): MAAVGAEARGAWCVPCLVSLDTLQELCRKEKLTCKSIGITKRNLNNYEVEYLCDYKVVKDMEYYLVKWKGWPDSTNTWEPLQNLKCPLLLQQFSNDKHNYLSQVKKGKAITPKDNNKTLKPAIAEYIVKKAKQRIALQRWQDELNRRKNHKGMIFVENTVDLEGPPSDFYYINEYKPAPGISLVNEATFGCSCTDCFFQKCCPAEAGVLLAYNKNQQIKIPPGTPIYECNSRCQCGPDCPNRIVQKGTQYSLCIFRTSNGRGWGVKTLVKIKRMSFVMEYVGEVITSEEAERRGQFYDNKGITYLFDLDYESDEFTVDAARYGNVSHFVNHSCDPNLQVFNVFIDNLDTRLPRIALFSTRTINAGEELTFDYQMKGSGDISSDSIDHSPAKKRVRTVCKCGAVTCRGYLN

Nc1nccc2c1ncn2[C@@H]1C=C(CO)[C@@H](O)[C@H]1O [DZNep, 3-Deazaneplanocin A]
levels of H3K27me3 and H3K9me3 (SETDB1 H3K9me3 HMTase): reduced levels of both H3K27me3 and H3K9me3

COc1cc2c(NC3CCN(C(C)C)CC3)nc(C3CCCCC3)nc2cc1OCCCN1CCCC1 [UNC0638, 2-Cyclohexyl-N-(1-isopropylpiperidin-4-yl)-6-methoxy-7-(3-(pyrrolidin-1-yl)propoxy)quinazolin-4-amine]
pIC50 (SUV39h2): < 5.00
